Reference: publication PMC10987501, “The antihyperglycemic potential of pyrazolobenzothiazine 1, 1-dioxide novel derivative in mice using integrated molecular pharmacological approach” (Scientific Reports, 2024)
Entries after “also recorded” stand apart in the source; their conditions may differ.

Tests used:
BALB/c mice [1] = assay: Histology of liver, kidney and pancreas and side effects in alloxan-induced diabetic mice; format: in vivo
Procedure: All experimental protocols adhered to the guidelines outlined in the NIH Guide for Care and Use of Laboratory Animals and the ARRIVE guidelines for animal experimentation. The Animal Care and Use Committee (ACUC) of Government College University Faisalabad (GCUF-2021-09) provided approval for the study. For in vivo study, BALB/c mice (weight 26–33 g) were acquired from the Department of Pharmacy and kept in the optimized environment (12 h dark, 12 h light) with a regular pellet diet and normal tab water. Diabetes induction in mice was done through a standard protocol reported by[21] with slight amendments. Alloxan monohydrate 150 mg/kg (following the body weight of mice) was liquified in normal saline and injected intraperitoneally in mice fasted for 16 h[22],[23]. Furthermore, screening of mice was done based on their blood glucose levels and mice with blood glucose levels more than 1.26 g/L were considered diabetic, and therefore taken for further experiment/examination. The mice diagnosed with diabetes were classified into five groups and five mice in each group. […] Two doses were selected because they indicate how the organism's response changes at different levels of exposure. This information is crucial for determining safe dosage levels for humans or animals. […]

BALB/c mice [2] = assay: Biochemical investigation of blood in alloxan-induced diabetic mice; format: in vivo; set-up: Serum insulin level: unit not given here; details: for Serum insulin level: normal mice about 15 µM/L; for Serum creatinine / Cholesterol in blood / HbA1c, % of glycated haemoglobin: treated group; for Serum creatinine: diabetic control 1.9 mg/dL; for Cholesterol in blood: diabetic control 120 mg/dL; for HbA1c, % of glycated haemoglobin: diabetic control 9%
Procedure: All experimental protocols adhered to the guidelines outlined in the NIH Guide for Care and Use of Laboratory Animals and the ARRIVE guidelines for animal experimentation. The Animal Care and Use Committee (ACUC) of Government College University Faisalabad (GCUF-2021-09) provided approval for the study. For in vivo study, BALB/c mice (weight 26–33 g) were acquired from the Department of Pharmacy and kept in the optimized environment (12 h dark, 12 h light) with a regular pellet diet and normal tab water. Diabetes induction in mice was done through a standard protocol reported by[21] with slight amendments. Alloxan monohydrate 150 mg/kg (following the body weight of mice) was liquified in normal saline and injected intraperitoneally in mice fasted for 16 h[22],[23]. Furthermore, screening of mice was done based on their blood glucose levels and mice with blood glucose levels more than 1.26 g/L were considered diabetic, and therefore taken for further experiment/examination. The mice diagnosed with diabetes were classified into five groups and five mice in each group. […] Two doses were selected because they indicate how the organism's response changes at different levels of exposure. This information is crucial for determining safe dosage levels for humans or animals.
For biochemical testing and histological examination, mice from each group were collected, and data were produced for different testing parameters, including fasting blood glucose, serum creatinine, serum insulin, HbA1c, triglyceride and cholesterol. A Countour TS glucometer was used to measure mice's fasting blood glucose levels. While Clinical Chemistry Reagents SRL (CCR) kit was used to measure serum creatinine and triglyceride levels. Moreover, the VITRO SCIENT kit was utilized to measure the serum insulin, cholesterol and HbA1c levels. For histological analysis, mice were sacrificed and their organs (liver, kidney and pancreas) were washed with cold saline and preserved in a 10% formalin solution. A compound microscope from the Department of Physiology, Government College University Faisalabad, was used for tissue investigation under a controlled and organized environment. Pictures of tissue samples were taken through OPTIKA software.

α-amylase [3] = assay: Kinetics study (α-amylase), Lineweaver–Burk plot; format: biochemical
Procedure: Varying concentrations (0.25%, 0.5%, 1%, 1.5%, 2%) of substrate [S] (starch) were used with constant enzyme concentration. Same as substrate, varying concentration (1 mM, 3 mM, 5 mM, 7 mM, 9 mM) of the inhibitor [V] was used. Lineweaver–Burk plots were used to determine the type of enzyme inhibition and the Michaelis Menten equation was used to find the value of inhibition constant. Vo=VmaxS/Km+S 1/Vo=Km+S/VmaxS=km/Vmax1/S+1/Vmax
(§1) The initial reaction rate is indicated by V0, Michaelis Menten's constant signifies km, Km/Vmax represents slope, and 1/Vmax denotes the y-intercept. The value of the inhibitory constant was calculated by plotting the secondary graph. Straight-line produced by slope versus [V] intersecting x-axis indicates ki value while ki′ was produced by intersecting line plotted between y-intercept and [V].

α-amylase [4] = assay: α-amylase inhibition assay (starch substrate, DNSA); format: biochemical
Procedure: ELISA plate was used for inhibition assay and it was loaded with 40 µL of the sample. Enzyme prepared in 0.02 M sodium phosphate buffer with pH 6.9 (40 µL) was further added to wells. The solution in wells was kept on incubation at 37 °C for 10 min. Moreover, 40 µL starch solution prepared in 1% DMSO was added to the solution and put on incubation for 10 min at 25 °C. At last, to stop the reaction, 100 µL of DNSA reagent was added to the solution. The mixture was put in a boiling water bath for 5 min and cooled down at room temperature after incubation. For dilution of the reaction mixture, 400 µL of distilled water was added to the solution, and the absorbance of the reaction mixture was measured at 540 nm wavelength. To calculate the percentage inhibition the following formula was used. Inhibition%=B-S/B∗100
(§2) At this point, the B and S denote absorbance for the blank and samples. Blank contains only DMSO instead of sample.

α-glucosidase [5] = assay: α-glucosidase inhibition assay (PNPG substrate); format: biochemical; details: for α-glucosidase % inhibition: 10 μL (500 µM) sample
Procedure: To carry out this reaction, 10 μL (500 µM) of 10 mM sample solution (prepared in DMSO) was added to ELISA 96 microwell plate. Then, 40 μL of 0.5U/ml α glucosidase was mixed by adding 120 μL of 0.1M phosphate buffer with a pH value of 7.4. The solution was incubated at 37 °C for 5 min. The reaction proceeded further by adding 40 μL of 5 mM substrate solution (PNPG) and incubation was done for half an hour at 37 °C. After performing the incubation microplate reader was used to read the absorbance of the reaction mixture at 405 nm wavelength. […] The inhibition percentage of the sample and positive control were calculated using the following formula. Inhibition%=B-S/B∗100
as §2

α-glucosidase [6] = assay: Kinetics study (α-glucosidase), Lineweaver–Burk plot; format: biochemical
Procedure: (p-nitrophenyl-α-D-glucoside) was used for reaction. In addition, varying concentrations (0.1 mM, 0.25 mM, 0.5 mM, 0.75 mM, 1 mM) sample/inhibitor [V] was used. The type of inhibition was determined by the Lineweaver–Burk plot, while the Michaelis Menten equation was used to find the value of the inhibition constant. Vo=VmaxS/Km+S 1/Vo=Km+S/VmaxS=km/Vmax1/S+1/Vmax
as §1, with “initial rate of” for “initial”, “reaction” for “reaction rate”, “represents to” for “represents”

| SMILES | Side effects in the mice model (BALB/c mice [1]; after administration to mice) | Histology: necrosis / toxicity in liver, kidney and pancreas (BALB/c mice [1]; diabetic mice dissected after 21 days of treatment) | Serum insulin level (BALB/c mice [2]; double dose (7.8 mg/kg)) | Fasting blood sugar level (BALB/c mice [2]; single and double doses (3.9 and 7.8 mg/kg), diabetic control > 300 mg/dL) | Serum insulin level (BALB/c mice [2]; single dose (3.9 mg/kg)) | Serum creatinine (BALB/c mice [2]) | Cholesterol in blood (BALB/c mice [2]) | HbA1c, % of glycated haemoglobin (BALB/c mice [2]) | Type of inhibition, α-amylase (α-amylase [3]) | IC50 (α-amylase [4]) | α-amylase % inhibition (α-amylase [4]) | IC50 (α-glucosidase [5]) | α-glucosidase % inhibition (α-glucosidase [5]; 500 µM) | Type of inhibition, α-glucosidase (α-glucosidase [6]) | α-glucosidase % inhibition (α-glucosidase [5]) |
| --- | --- | --- | --- | --- | --- | --- | --- | --- | --- | --- | --- | --- | --- | --- | --- |
| C/C(=N\NC(=O)C1=C(O)c2ccccc2S(=O)(=O)N1)c1ccccc1 [Compound S1, (E)-4-Hydroxy-N′-(1-phenylethylamine)-2H-benzo[e][1,2]thiazine-3-carbohydrazide1,1-dioxide] | no significant side effect | low necrosis rate; also recorded: less toxic in the kidney, liver, and pancreas; also recorded: no toxicity within the liver and pancreatic tissues; also recorded: minimum rate of necrosis and toxicity | 30 | 110 mg/dL | 25 | 0.6 mg/dL | 85 mg/dL | 3% | competitive type of inhibition; also recorded: competitively | 8.89 µM | 46 ± 0.091% | 3.91 µM | 55 ± 0.047% | competitive type of inhibition; also recorded: competitively | – |
| C[C@H]1O[C@H](O[C@H]2[C@H](O)[C@@H](O)[C@@H](O[C@H]3[C@H](O)[C@@H](O)C(O)O[C@@H]3CO)O[C@@H]2CO)[C@H](O)[C@@H](O)[C@@H]1N[C@H]1C=C(CO)[C@@H](O)[C@H](O)[C@H]1O (some centres unmarked) [Acarbose, reference compound] | – | – | – | – | – | 0.8 mg/dL | 100 mg/dL | 5% | – | – | 33 ± 0.042% | – | – | competitive inhibition | 37 ± 0.026% |
